Results: US20130237533A1, “CDK Inhibitors” (G1 THERAPEUTICS, INC., priority 2010, published 2013)

What follows are compounds tested against CDK2/cyclinE (Homo sapiens, UniProt P24941) (assay: Caliper LabChip kinase enzymatic assay, CDK2/cyclinE). Conditions: Table 2, class symbols; read-out: CDK2/CycE IC50.
Format: biochemical
Method: Kinase enzymatic reactions were performed in 384-well microplates using a 12-channel Caliper LabChip instrument as a detection device. […] As substrate and product are separated, two peaks of fluorescence are observed. Change in the relative fluorescence intensity of the substrate and product peaks is the parameter measured, reflecting enzyme activity. In the presence of an inhibitor, the ratio between product and substrate is altered. The signal of the product decreases, while the signal of the substrate increases.
Potential inhibitor compounds (as HCl salts) were tested using 12-point dose response curves in single point at the Km, for ATP. The IC50 of each compound was determined using GraphPad Prism.

Row | SMILES | IC50
1 | O=C1NCCn2c1cc1cnc(Nc3ccc(N4CCNCC4)cn3)nc12 [Compound 3] | > 100000 nM
2 | CC(C)C1CNC(=O)c2cc3cnc(Nc4ccc(N5CCNCC5)cn4)nc3n21 (centres unmarked) [Compound 8] | 1000 to 100000 nM
3 | CC(C)[C@@H]1CNC(=O)c2cc3cnc(Nc4ccc(N5CCNCC5)cn4)nc3n21 [Compound 9] | 1000 to 100000 nM
4 | CC(C)[C@H]1CNC(=O)c2cc3cnc(Nc4ccc(N5CCNCC5)cn4)nc3n21 [Compound 10] | 1000 to 100000 nM
5 | CC(C)C[C@H]1CNC(=O)c2cc3cnc(Nc4ccc(N5CCN(C)CC5)cn4)nc3n21 [Compound 12] | 1000 to 100000 nM
6 | CC(C)C[C@H]1CNC(=O)c2cc3cnc(Nc4ccc(N5CCNCC5)cn4)nc3n21 [Compound 13] | 1000 to 100000 nM
7 | CCC(C)[C@H]1CNC(=O)c2cc3cnc(Nc4ccc(N5CCN(C)CC5)cn4)nc3n21 (some centres unmarked) [Compound 16] | 1000 to 100000 nM
8 | CCC(C)[C@H]1CNC(=O)c2cc3cnc(Nc4ccc(N5CCNCC5)cn4)nc3n21 (some centres unmarked) [Compound 17] | 1000 to 100000 nM
9 | CC(C)(C)[C@H]1CNC(=O)c2cc3cnc(Nc4ccc(N5CCNCC5)cn4)nc3n21 [Compound 20] | 100 to 1000 nM
10 | CN1C[C@H](C(C)(C)C)n2c(cc3cnc(Nc4ccc(N5CCNCC5)cn4)nc32)C1=O [Compound 21] | 1000 to 100000 nM
11 | CN1CCN(c2ccc(Nc3ncc4cc5n(c4n3)[C@@H](c3ccccc3)CNC5=O)nc2)CC1 [Compound 22] | 1000 to 100000 nM
12 | O=C1NC[C@H](c2ccccc2)n2c1cc1cnc(Nc3ccc(N4CCNCC4)cn3)nc12 [Compound 23] | 100 to 1000 nM
13 | CC(C)[C@H]1Cn2c(cc3cnc(Nc4ccc(N5CCNCC5)cn4)nc32)C(=O)N1 [Compound 24] | 1000 to 100000 nM
14 | CC(C)[C@@H]1Cn2c(cc3cnc(Nc4ccc(N5CCNCC5)cn4)nc32)C(=O)N1 [Compound 25] | 1000 to 100000 nM
15 | CC1(C)CNC(=O)c2cc3cnc(Nc4ccc(N5CCNCC5)cn4)nc3n21 [Compound 26] | 1000 to 100000 nM
16 | CN1CCN(c2ccc(Nc3ncc4cc5n(c4n3)C3(CCCC3)CNC5=O)nc2)CC1 [Compound 29] | 1000 to 100000 nM
17 | O=C1NCC2(CCCC2)n2c1cc1cnc(Nc3ccc(N4CCNCC4)cn3)nc12 [Compound 30] | 1000 to 100000 nM
18 | O=C1NCC2(CCCC2)n2c1cc1cnc(Nc3ccc(N4CCOCC4)cn3)nc12 [Compound 32] | 1000 to 100000 nM
19 | O=C1NCC2(CCCC2)n2c1cc1cnc(Nc3ccc(N4CCOCC4)nn3)nc12 [Compound 33] | 1000 to 100000 nM
20 | O=C1NCC2(CCCC2)n2c1cc1cnc(Nc3ccc(N4CCOCC4)cc3)nc12 [Compound 34] | 10 to 100 nM
21 | CC(C)N1CCN(c2ccc(Nc3ncc4cc5n(c4n3)C3(CCCC3)CNC5=O)nc2)CC1 [Compound 35] | 1000 to 100000 nM
22 | CC(C)CN1CCN(c2ccc(Nc3ncc4cc5n(c4n3)C3(CCCC3)CNC5=O)nc2)CC1 [Compound 36] | 1000 to 100000 nM
23 | CC1CN(c2ccc(Nc3ncc4cc5n(c4n3)C3(CCCC3)CNC5=O)nc2)CC(C)O1 (centres unmarked) [Compound 37] | 1000 to 100000 nM
24 | O=C1NCC2(CCCC2)n2c1cc1cnc(Nc3ccc(N4CCCCC4)cn3)nc12 [Compound 38] | 1000 to 100000 nM
25 | O=C1NCC2(CCCC2)n2c1cc1cnc(Nc3ccc(N4CCC(N5CCOCC5)CC4)cn3)nc12 [Compound 39] | 1000 to 100000 nM
26 | O=C1NCC2(CCCC2)n2c1cc1cnc(Nc3ccc(N4CCC(N5CCCCC5)CC4)cn3)nc12 [Compound 40] | 1000 to 100000 nM
27 | O=C1NCC2(CCCC2)n2c1cc1cnc(Nc3ccc(N4CCSCC4)cn3)nc12 [Compound 41] | 1000 to 100000 nM
28 | CC(C)CC1CNC(=O)c2cc3cnc(Nc4ccc(N5CCNCC5)cn4)nc3n21 (centres unmarked) [Compound 46] | 1000 to 100000 nM

Same assay, conditions: enzyme 0.22 nM, (at the Km for ATP), one hour; 12-point dose response; compounds as HCl salts; read-out: CDK2/cyclinE IC50

Row | SMILES | IC50
29 | O=C1NCCn2c1cc1cnc(Nc3ccc(N4CCNCC4)cn3)nc12 [Compound 3] | > 100000 nM
